Results reported in ChEMBL document CHEMBL1201862, “PubChem BioAssay data set” (2004).
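Cells were grown in 96-well plates and exposed to each compound for 48 hours at five concentrations; endpoints were interpolated linearly between bracketing concentrations, or set to the highest concentration if not reached. The concentration for 50% growth inhibition is given as GI50.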 The source made the active and inactive calls. Rule as the data show it: active = GI50 up to about 1.1 µM and inactive = higher.

How the values were obtained:
Test in all cases: inhibition of tumour cell growth, NCI panel, 48 h
LXFL 529 = system: LXFL 529
NCI-H226 = system: NCI-H226
MOLT-4 = system: MOLT-4
SK-OV-3 = system: SK-OV-3
SK-MEL-5 = system: SK-MEL-5
SNB-19 = system: SNB-19
XF498 = system: XF498
786-0 = system: 786-0
IGROV-1 = system: IGROV-1
A498 = system: A498
HCC 2998 = system: HCC 2998
ACHN = system: ACHN
SF-539 = system: SF-539
DMS-273 = system: DMS-273
EKVX = system: EKVX
NCI-H460 = system: NCI-H460
HOP-62 = system: HOP-62
SF-295 = system: SF-295
HT-29 = system: HT-29
A549 = system: A549
OVCAR-3 = system: OVCAR-3
OVCAR-4 = system: OVCAR-4
NCI-H522 = system: NCI-H522
K562 = system: K562
SNB-75 = system: SNB-75
SR = system: SR
CCRF-CEM = system: CCRF-CEM
UACC-62 = system: UACC-62
HCT-15 = system: HCT-15
SW-620 = system: SW-620
UACC-257 = system: UACC-257
SK-MEL-2 = system: SK-MEL-2
NCI-H23 = system: NCI-H23
CAKI-1 = system: CAKI-1
HL-60 = system: HL-60
SK-MEL-28 = system: SK-MEL-28
SN12C = system: SN12C
SNB-78 = system: SNB-78
DLD-1 = system: DLD-1
M14 = system: M14
UO-31 = system: UO-31
OVCAR-5 = system: OVCAR-5
KM-20L2 = system: KM-20L2
LOX IMVI = system: LOX IMVI
HCT-116 = system: HCT-116
COLO 205 = system: COLO 205
RXF 393 = system: RXF 393
Malme-3M = system: Malme-3M
TK-10 = system: TK-10
KM12 = system: KM12
SF-268 = system: SF-268
DMS-114 = system: DMS-114
OVCAR-8 = system: OVCAR-8
M19-MEL = system: M19-MEL
U-251 = system: U-251
HOP-18 = system: HOP-18

Which results are given for `COC(=O)C(=O)C(C(=O)OC)C(=O)C(=O)Nc1cc(Cl)c(C)cc1S(=O)(=O)O` (stereo unspecified)?
GI50 (LXFL 529): > 100 µM (inactive); GI50 (NCI-H226): > 100 µM (inactive); GI50 (MOLT-4): > 100 µM (inactive); GI50 (SK-OV-3): > 100 µM (inactive); GI50 (SK-MEL-5): > 100 µM (inactive); GI50 (SNB-19): > 100 µM (inactive); GI50 (XF498): > 100 µM (inactive); GI50 (786-0): > 100 µM (inactive); GI50 (IGROV-1): > 100 µM (inactive); GI50 (A498): > 100 µM (inactive); GI50 (HCC 2998): > 100 µM (inactive); GI50 (ACHN): > 100 µM (inactive); GI50 (SF-539): > 100 µM (inactive); GI50 (DMS-273): > 100 µM (inactive); GI50 (EKVX): > 100 µM (inactive); GI50 (NCI-H460): > 100 µM (inactive); GI50 (HOP-62): > 100 µM (inactive); GI50 (SF-295): > 100 µM (inactive); GI50 (HT-29): > 100 µM (inactive); GI50 (A549): > 100 µM (inactive); GI50 (OVCAR-3): > 100 µM (inactive); GI50 (OVCAR-4): > 100 µM (inactive); GI50 (NCI-H522): > 100 µM (inactive); GI50 (K562): > 100 µM (inactive); GI50 (SNB-75): 74.3 µM (inactive); GI50 (SR): > 100 µM (inactive); GI50 (CCRF-CEM): > 100 µM (inactive); GI50 (UACC-62): > 100 µM (inactive); GI50 (HCT-15): > 100 µM; GI50 (SW-620): > 100 µM (inactive); GI50 (UACC-257): > 100 µM (inactive); GI50 (SK-MEL-2): > 100 µM (inactive); GI50 (NCI-H23): > 100 µM (inactive); GI50 (CAKI-1): > 100 µM (inactive); GI50 (HL-60): > 100 µM (inactive); GI50 (SK-MEL-28): > 100 µM (inactive); GI50 (SN12C): > 100 µM (inactive); GI50 (SNB-78): > 100 µM (inactive); GI50 (DLD-1): > 100 µM (inactive); GI50 (M14): > 100 µM (inactive); GI50 (UO-31): > 100 µM (inactive); GI50 (OVCAR-5): > 100 µM (inactive); GI50 (KM-20L2): > 100 µM (inactive); GI50 (LOX IMVI): > 100 µM (inactive); GI50 (HCT-116): > 100 µM (inactive); GI50 (COLO 205): > 100 µM (inactive); GI50 (RXF 393): > 100 µM (inactive); GI50 (Malme-3M): > 100 µM (inactive); GI50 (TK-10): > 100 µM (inactive); GI50 (KM12): > 100 µM (inactive); GI50 (SF-268): > 100 µM (inactive); GI50 (DMS-114): > 100 µM (inactive); GI50 (OVCAR-8): > 100 µM (inactive); GI50 (M19-MEL): > 100 µM (inactive); GI50 (U-251): > 100 µM (inactive); GI50 (HOP-18): > 100 µM (inactive)
